Measured values from PubChem BioAssay AID2060901 (Molecular Pharmacology Branch, DTP, NCI, 2025).

Tested on: 422866-222-R5-J1-PDC complex spheroids viability
Experiment: Anticancer human tumor 422866-222-R5-J1-PDC patient-derived pancreatic adenocarcinoma cell line growth inhibition [RAS]
Conditions: for IC50: curve of first compound; for viability, T/C: stronger effect = lower value
Summary of the method: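 Agents were tested in combination matrices in half-log decrements from a top concentration at or near clinical Cmax (10 microM if undetermined). Targets were multi-cell spheroids of tumour lines plus HUVEC and MSC stromal cells.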

[1] = second compound 0.0316 µM, first compound 0.0316 µM
[2] = second compound 0.0316 µM, first compound 0.1 µM
[3] = second compound 0.0316 µM, first compound 0.316 µM
[4] = second compound 0.0316 µM, first compound 1 µM
[5] = second compound 0.1 µM, first compound 0.0316 µM
[6] = second compound 0.1 µM, first compound 0.1 µM
[7] = second compound 0.1 µM, first compound 0.316 µM
[8] = second compound 0.1 µM, first compound 1 µM
[9] = second compound 0.316 µM, first compound 0.0316 µM
[10] = second compound 0.316 µM, first compound 0.1 µM
[11] = second compound 0.316 µM, first compound 0.316 µM
[12] = second compound 0.316 µM, first compound 1 µM
[13] = second compound 1 µM, first compound 0.0316 µM
[14] = second compound 1 µM, first compound 0.1 µM
[15] = second compound 1 µM, first compound 0.316 µM
[16] = second compound 1 µM, first compound 1 µM
[17] = second compound 3.16 µM, first compound 0.0316 µM
[18] = second compound 3.16 µM, first compound 0.1 µM
[19] = second compound 3.16 µM, first compound 0.316 µM
[20] = second compound 3.16 µM, first compound 1 µM
[21] = second compound 10 µM, first compound 0.0316 µM
[22] = second compound 10 µM, first compound 0.1 µM
[23] = second compound 10 µM, first compound 0.316 µM
[24] = second compound 10 µM, first compound 1 µM
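Also: spheroids exposed to compounds for 7 days.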
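For viability, T/C in this document: 100% = DMSO vehicle control viability.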

NC1c2ccccc2OC12CCN(c1cnc3c(N4CCCc5ncccc54)n[nH]c3n1)CC2 (centres undefined) + C#Cc1c(F)ccc2cc(O)cc(-c3ncc4c(N5CC6CCC(C5)N6)nc(OCC56CCCN5CC(F)C6)nc4c3F)c12
IC50 (second compound 0.0316 µM): 55.8 nM | IC50 (second compound 0.1 µM): < 31.6 nM | IC50 (second compound 0.316 µM): < 31.6 nM | IC50 (second compound 1 µM): < 31.6 nM | IC50 (second compound 3.16 µM): < 31.6 nM | IC50 (second compound 10 µM): < 31.6 nM | viability, T/C [1]: 53% | viability, T/C [2]: 49.2% | viability, T/C [3]: 34.8% | viability, T/C [4]: 38.4% | viability, T/C (second compound 0.0316 µM, first compound 3.16 µM): 29.5% | viability, T/C (second compound 0.0316 µM, first compound 10 µM): 23.6% | viability, T/C [5]: 44% | viability, T/C [6]: 43.3% | viability, T/C [7]: 32.8% | viability, T/C [8]: 28.7% | viability, T/C (second compound 0.1 µM, first compound 3.16 µM): 27.7% | viability, T/C (second compound 0.1 µM, first compound 10 µM): 25.5% | viability, T/C [9]: 38.1% | viability, T/C [10]: 36.2% | viability, T/C [11]: 24.1% | viability, T/C [12]: 26.4% | viability, T/C (second compound 0.316 µM, first compound 3.16 µM): 24.2% | viability, T/C (second compound 0.316 µM, first compound 10 µM): 19.7% | viability, T/C [13]: 27.1% | viability, T/C [14]: 23.9% | viability, T/C [15]: 25.2% | viability, T/C [16]: 17% | viability, T/C (second compound 1 µM, first compound 3.16 µM): 19.6% | viability, T/C (second compound 1 µM, first compound 10 µM): 15% | viability, T/C [17]: 17.8% | viability, T/C [18]: 19.8% | viability, T/C [19]: 16.1% | viability, T/C [20]: 17.4% | viability, T/C (second compound 3.16 µM, first compound 3.16 µM): 17.5% | viability, T/C (second compound 3.16 µM, first compound 10 µM): 14.9% | viability, T/C [21]: 15.7% | viability, T/C [22]: 16.5% | viability, T/C [23]: 14.3% | viability, T/C [24]: 16.2% | viability, T/C (second compound 10 µM, first compound 3.16 µM): 15.6% | viability, T/C (second compound 10 µM, first compound 10 µM): 16.1%

C=CC(=O)Nc1cc(Nc2nccc(-c3cn(C)c4ccccc34)n2)c(OC)cc1N(C)CCN(C)C + C#Cc1c(F)ccc2cc(O)cc(-c3ncc4c(N5CC6CCC(C5)N6)nc(OCC56CCCN5CC(F)C6)nc4c3F)c12
IC50 (second compound 0.0316 µM): > 1000 nM | IC50 (second compound 0.1 µM): > 1000 nM | IC50 (second compound 0.316 µM): 94.2 nM | IC50 (second compound 1 µM): < 3.16 nM | IC50 (second compound 3.16 µM): < 3.16 nM | IC50 (second compound 10 µM): < 3.16 nM | viability, T/C (second compound 0.0316 µM, first compound 0.00316 µM): 83.7% | viability, T/C (second compound 0.0316 µM, first compound 0.01 µM): 97.5% | viability, T/C [1]: 85.8% | viability, T/C [2]: 74% | viability, T/C [3]: 66% | viability, T/C [4]: 57.7% | viability, T/C (second compound 0.1 µM, first compound 0.00316 µM): 74.5% | viability, T/C (second compound 0.1 µM, first compound 0.01 µM): 91.4% | viability, T/C [5]: 68.9% | viability, T/C [6]: 58.2% | viability, T/C [7]: 62.6% | viability, T/C [8]: 50.2% | viability, T/C (second compound 0.316 µM, first compound 0.00316 µM): 72.4% | viability, T/C (second compound 0.316 µM, first compound 0.01 µM): 69.8% | viability, T/C [9]: 47.7% | viability, T/C [10]: 56.5% | viability, T/C [11]: 42.2% | viability, T/C [12]: 40.2% | viability, T/C (second compound 1 µM, first compound 0.00316 µM): 50.9% | viability, T/C (second compound 1 µM, first compound 0.01 µM): 44.5% | viability, T/C [13]: 34.1% | viability, T/C [14]: 35.9% | viability, T/C [15]: 33.8% | viability, T/C [16]: 31.6% | viability, T/C (second compound 3.16 µM, first compound 0.00316 µM): 33.6% | viability, T/C (second compound 3.16 µM, first compound 0.01 µM): 32.9% | viability, T/C [17]: 27.6% | viability, T/C [18]: 23.7% | viability, T/C [19]: 26.4% | viability, T/C [20]: 22.4% | viability, T/C (second compound 10 µM, first compound 0.00316 µM): 23.2% | viability, T/C (second compound 10 µM, first compound 0.01 µM): 20.7% | viability, T/C [21]: 22.2% | viability, T/C [22]: 22.1% | viability, T/C [23]: 19.9% | viability, T/C [24]: 19.6%
